Measured values from US20080280920A1, “Plasminogen Activator Inhibitor-1 Inhibitors” (priority 2005, published 2008).

Molecular target: T1, wildtype human PAI-1 (Homo sapiens, UniProt P05121)
T1 construct: purchased Molecular Innovations Lot# HWT-804
Assay: PAI-1/uPA assay (residual uPA activity, fluorescent substrate SpectroFluor)
Type: biochemical
Details: for Percent PAI-1 inhibition: at the concentration given, percent of activity of untreated PAI-1; for Conc. of compound required for PAI-1 inhibition: concentration giving the percent inhibition, 6 nM PAI-1, 8 nM uPA; for Conc. of compound required for PAI-1 inhibition (result in words): within the concentration range tested
Procedure: Principle: The assay is based on using a fluorescent substrate (SpectroFluor) to measure residual uPA following inhibition of uPA by PAI-1. PAI-1 used in the assay is pre-treated in the presence of increasing concentrations of the lead compounds to screen for any inhibitory effects on PAI-1. Method: This assay was performed in 96 well microtiter plates. The concentrations of uPA (8 nM) and PAI-1 (6 nM) used in this assay were carefully optimized when using the fluorescent substrate, SpectroFluor™. Stock solutions (10 mM) of all lead compounds were prepared fresh in DMSO. […] 20 μl of 6 nM wildtype human PAI-1 (Molecular Innovations, Lot# HWT-804) was incubated for 15-20 minutes at room temperature in 96 well microtiter plates either with buffer, (50 mM HEPES, 150 mM NaCl, 0.05% Tween-20, 1% BSA, pH 6.6) or various concentrations (10 nM to 100 μM final concentration) of lead compounds in a total volume of 80 μl. A 20 μl aliquot of 8 nM uPA (HMW) solution in 0.05M Tris Buffered™ saline (TBS), pH 8.4 was added to each well and the mixture incubated for an additional 5 minutes at RT. The proteolytic reaction was initiated by addition of 50 μl of 0.1 mM SpectroFluor (Spectrozyme UK Fluorogenic substrate) to each well. The kinetics of the free chromophore, 7-amino-4-methylcoumarin (AMC) released in the course of peptide cleavage by the protease, uPA, was monitored for 30 minutes at 37° C. on a spectrofluorometric microplate reader with an excitation wavelength of 360 nm and emission wavelength of 440 nm. Kinetic data regarding the rate of substrate cleavage by uPA was acquired with Softmax PrO™ software. The difference between the residual uPA activity in the presence or absence of untreated PAI-1, at the molar ratio used, was considered as the “total” PAI-1 activity (100%). The inhibition of uPA by PAI-1 treated with lead compounds was expressed as a percentage of the initial activity of untreated PAI-1. Controls were performed during each experiment to ensure the nearly complete inhibition of uPA by untreated PAI-1 and also to ensure the absence of any direct effect of the lead compounds on uPA alone or on SpectroFluor.

T1 sequence (P05121 24-402): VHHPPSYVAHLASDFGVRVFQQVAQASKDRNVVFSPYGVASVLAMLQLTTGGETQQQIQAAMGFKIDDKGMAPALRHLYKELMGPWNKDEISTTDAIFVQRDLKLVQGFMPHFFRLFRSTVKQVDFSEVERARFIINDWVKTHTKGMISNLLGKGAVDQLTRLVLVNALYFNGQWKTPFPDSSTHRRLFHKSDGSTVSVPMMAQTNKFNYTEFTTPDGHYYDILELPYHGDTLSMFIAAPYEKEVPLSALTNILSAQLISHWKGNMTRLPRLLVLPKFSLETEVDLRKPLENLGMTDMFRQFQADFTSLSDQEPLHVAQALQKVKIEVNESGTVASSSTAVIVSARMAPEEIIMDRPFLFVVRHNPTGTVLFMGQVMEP

COc1cc(/C=C/C(=O)CC(=O)/C=C/c2ccc(O)c(OC)c2)ccc1O [Curcumin, curcumin, reference compound]
Percent PAI-1 inhibition: 22 | Conc. of compound required for PAI-1 inhibition: 0.5 µM

COc1cc(CNCc2ccc(C(=O)O)cc2)cc(CN2CCN(c3ccccn3)CC2)c1O [Compound Q012136]
Percent PAI-1 inhibition: 15 | Conc. of compound required for PAI-1 inhibition: 50 µM

COc1cc(CNc2ccc(C(=O)O)cc2)cc(CN2CCN(c3ccccn3)CC2)c1O [Compound Q012146]
Conc. of compound required for PAI-1 inhibition (result in words): No inhibition

O=C(O)c1cc(/C=C2\NC(=O)N(Cc3ccccc3)C2=O)ccc1O [Compound Q013012, 5-[(Z)-(1-benzyl-2,5-dioxoimidazolidin-4-ylidene)methyl]-2-hydroxybenzoic acid]
Conc. of compound required for PAI-1 inhibition (result in words): No inhibition

COc1cc(/C=C2\NC(=O)N(Cc3ccc(O)cc3)C2=O)cc(CN2CCN(C)CC2)c1O [Compound Q013024]
Conc. of compound required for PAI-1 inhibition (result in words): No inhibition

CN1C(=N)N/C(=C\c2csc3ccccc23)C1=O [Compound Q012038]
Percent PAI-1 inhibition: 35 | Conc. of compound required for PAI-1 inhibition: 10 µM

CC(C)(C)OC(=O)Nc1ccc(O)c(C(=O)NCCO)c1 [Compound Q012021B, tert-Butyl 4-hydroxy-3-{[(2-hydroxyethyl)amino]carbonyl}phenylcarbamate]
Percent PAI-1 inhibition: 25 | Conc. of compound required for PAI-1 inhibition: 10 µM

CCOC(=O)[C@H](Cc1csc2ccccc12)NC(=O)[C@@H]1CCCNC1 [Compound Q012127, (2S)-3-(thianaphthen-3-yl)-2-({[(3R)-piperidin-3-yl]carbonyl}amino)propanoic acid ethyl ester]
Percent PAI-1 inhibition: 13 | Conc. of compound required for PAI-1 inhibition: 250 µM

COc1cc(CNc2ccccn2)cc(CN2CCN(c3ccccn3)CC2)c1O [Compound Q012143]
Percent PAI-1 inhibition: 22 | Conc. of compound required for PAI-1 inhibition: 250 µM

O=C1N/C(=C\c2csc3ccccc23)C(=O)N1Cc1csc2ccccc12 [Compound Q013018]
Conc. of compound required for PAI-1 inhibition (result in words): No inhibition

CCOC(=O)[C@H](Cc1csc2ccccc12)NC(=O)COc1ccc2c(C(F)(F)F)cc(=O)oc2c1 [Compound Q012124, (2S)-2-({[2-oxo-4-(trifluoromethyl)-2H-chromen-7-yl]oxy}acetyl)amino-3-(thianaphthen-3-yl)propanoic acid ethyl ester]
Percent PAI-1 inhibition: 13 | Conc. of compound required for PAI-1 inhibition: 0.05 µM

CCOC(=O)[C@H](Cc1csc2ccccc12)NC(=O)COc1ccc2c(C)cc(=O)oc2c1 [Compound Q012055, (S)—N-[(4-methyl-2-oxo-2H-chromen-7-yl)oxyacetyl]-3-(thianaphthen-3-yl)alanine ethyl ester]
Percent PAI-1 inhibition: 51 | Conc. of compound required for PAI-1 inhibition: 0.05 µM

O=C1N/C(=C\c2c[nH]c3ccccc23)C(=O)N1Cc1ccccc1 [Compound Q013019]
Conc. of compound required for PAI-1 inhibition (result in words): No inhibition

CCOC(=O)[C@H](Cc1ccccc1)NC(=O)Nc1ccc2c(C)cc(=O)oc2c1 [Compound Q012053, (2S)-2-({[(4-Methyl-2-oxo-2H-chromen-7-yl)amino]carbonyl}amino)-3-phenylpropanoic acid ethyl ester]
Percent PAI-1 inhibition: 44 | Conc. of compound required for PAI-1 inhibition: 10 µM

O=C(COc1ccc2c(C(F)(F)F)cc(=O)oc2c1)N[C@@H](Cc1csc2ccccc12)C(=O)O [Compound Q012125, (2S)-2-({[2-oxo-4-(trifluoromethyl)-2H-chromen-7-yl]oxy}acetyl)amino-3-(thianaphthen-3-yl)propanoic acid]
Conc. of compound required for PAI-1 inhibition (result in words): No inhibition

Cl.O=C(N[C@@H](Cc1csc2ccccc12)C(=O)O)c1cncc(Br)c1 [Compound Q011265, (S)—N-(5-bromonicotinoyl)-3-(thianaphthen-3-yl)alanine hydrochloride]
Percent PAI-1 inhibition: 20 | Conc. of compound required for PAI-1 inhibition: 1 µM

CC(C)(C)OC(=O)N1CCC[C@@H](C(=O)N[C@@H](Cc2csc3ccccc23)C(=O)O)C1 [Compound Q012128, (2S)-3-(thianaphthen-3-yl)-2-({[(3R)—N-t-butyloxycarbonylpiperidin-3-yl]carbonyl}amino)propanoic acid]
Percent PAI-1 inhibition: 14.5 | Conc. of compound required for PAI-1 inhibition: 10 µM

Cc1cc(=O)oc2cc(OCC(=O)N[C@@H](Cc3csc4ccccc34)C(=O)O)ccc12 [Compound Q012055A, (S)—N-[(4-methyl-2-oxo-2H-chromen-7-yl)oxyacetyl]-3-(thianaphthen-3-yl)alanine]
Percent PAI-1 inhibition: 41 | Conc. of compound required for PAI-1 inhibition: 1 µM

O=C(N[C@@H](Cc1csc2ccccc12)C(=O)O)[C@@H]1CCCNC1 [Compound Q012129, (2S)-3-(thianaphthen-3-yl)-2-({[(3R)-piperidin-3-yl]carbonyl}amino)propanoic acid]
Percent PAI-1 inhibition: 23 | Conc. of compound required for PAI-1 inhibition: 1 µM

CN(C)CCSc1ccc(/C=C2\NC(=O)N(Cc3ccc(OCc4ccccc4)cc3)C2=O)s1 [Compound Q013021]
Percent PAI-1 inhibition: 25 | Conc. of compound required for PAI-1 inhibition: 1 µM

COc1cc(CN[C@@H](Cc2ccccc2)C(=O)O)cc(CN2CCN(c3ccccn3)CC2)c1O [Compound Q012148]
Conc. of compound required for PAI-1 inhibition (result in words): No inhibition

N=C(N)N1CCC[C@@H](C(=O)N[C@@H](Cc2csc3ccccc23)C(=O)O)C1 [Compound Q012130, (2S)-3-(thianaphthen-3-yl)-2-({[(3R)—N-[amino(imino)methyl]piperidin-3-yl]carbonyl}amino)propionic acid]
Conc. of compound required for PAI-1 inhibition (result in words): No inhibition

COc1cc(CNCCc2ccccn2)cc(CN2CCN(c3ccccn3)CC2)c1O [Compound Q012119T, 2-Methoxy-4-({[2-(pyridin-2-yl)ethyl]amino}methyl)-6-[(4-pyridin-2-ylpiperazin-1-yl)methyl]phenol]
Conc. of compound required for PAI-1 inhibition (result in words): No inhibition

CCOC(=O)[C@H](Cc1csc2ccccc12)NC(=O)[C@@H]1CCCN(C(=O)OC(C)(C)C)C1 [Compound Q012126, (2S)-3-(thianaphthen-3-yl)-2-({[(3R)—N-t-butyloxycarbonylpiperidin-3-yl]carbonyl}amino)propanoic acid ethyl ester]
Percent PAI-1 inhibition: 19 | Conc. of compound required for PAI-1 inhibition: 50 µM
